Reference: patent publication US11739122B2, “Glycopeptide antibiotic compounds, methods for producing the same, and uses thereof” (Academia Sinica, priority 2019, dated 2023)
Values after ≈ are worked out from the molar mass of the structure shown. Values joined by “and” are separate entries in the source; they are usually repeats but may differ in a detail not shown here. Identical values can stand only once. Counter-ions that a name gives are not always drawn. Like-named read-outs stand apart in the source and are kept apart here.

Experiments:
A. baumannii ATCC 19606 [1] = assay: In vivo efficacy, intranasal A. baumannii infection; set-up: species or system mice; conditions: BAL fluid, 24 hours post-inoculation; 24 and kanamycin 30, amikacin 15 mgkg^−1
Procedure: In Vivo Efficacy of r6,N-Acyl-Glc Tei Analogs
Female C57BL/6 mice (6 weeks of age; about 16-19 g, 3-5 mice per group) were intraperitoneally inoculated with 300 μL of MRSA ATCC 700787 suspension (about 10^7 CFUmL^−1). For intranasal A. baumannii (ATCC 19606) inoculation, mice were anesthetized, and inoculated intranasally with about 10^7-10^8 CFUmL^−1 A. baumannii in 50 μL of PBS. Treatments were started 1 hour after the bacterial challenge. The dose administration to mice was set as follows: teicoplanin (1) or r6,C8-Tei analog (14) 20 mgkg^−1 was intraperitoneally injected to MRSA-infected mice; amikacin (15 mgkg^−1), teicoplanin (1) (30 mgkg^−1), kanamycin (30 mgkg^−1) or r1,Me2-r6,guanidino-C8 analog (24) (30 mgkg^−1) was intraperitoneally injected to AB-infected mice. To assess bacteraemia, the test animals were sacrificed to collect 1 mL of peritoneal fluid (PF) for MRSA counting or the lungs were lavaged to collect 0.6 mL bronchoalveolar lavage (BAL) fluid for A. baumannii counting.
For AB (ATCC 19606), female C57BL/6 mice were first anesthetized by intraperitoneal injection of zoletil and then intranasally inoculated with 50 μL of bacteria in a PBS solution (about 10^7-10^8 CFUmL^−1). The treatment started 1 hour post-infection with a single dose of compound 24 (30 mgkg^−1), compound 1 (30 mgkg^−1), amikacin (15 mgkg^−1), or kanamycin (30 mgkg^−1), where saline/compound 1 and amikacin/kanamycin respectively served as negative and positive controls. To assess the density of bacteraemia, the lungs of mice were lavaged to collect 0.6 mL bronchoalveolar lavage (BAL) fluid from each mouse at 24 hours post-inoculation. For saline/compound 1 treated controls, the bacterial load was counted (about 4 log CFUmL^−1, FIG. 4B), where the bacterial load was reduced by 0.5 or 1 log CFUmL^−1 with the treatment of amikacin/kanamycin or compound 24, respectively.

A. baumannii ATCC 19606 [2] = assay: MIC, broth microdilution; type: cell-based, Acinetobacter baumannii
Procedure: (§1) Determination of Minimal Inhibitory Concentration (MIC) for Vancomycin, Teicoplanin and Tei-Analogs Versus Selected Strains
(§2) MICs were determined by the broth microdilution method. Specifically, 12 Colonies of the test strain were picked up from 18-24 hour agar cultures and freshly inoculated into broth mediums until reaching the turbidity of a 0.5 McFarland standard. The broth culture was adjusted with broth medium to approximately 1×10^8 CFUmL^−1. […] The plates were incubated in 37° C. for 18-24 hours and monitored for the wells of the positive control, where cells grew, and the wells of the negative control, where wells should not grow. The MIC value was determined for the concentration of a test compound, at which there was no visible growth in the well.

MRSA ATCC BAA-39 = assay: MIC, broth microdilution; type: cell-based, Staphylococcus aureus; conditions: MRSA ATCC BAA-39
Procedure: as §1, §2

MRSA ATCC 700789 VRSA = assay: MIC, broth microdilution; type: cell-based, Staphylococcus aureus; conditions: MRSA ATCC 700789 VRSA
Procedure: as §1, §2

MRSA ATCC 43300 = assay: MIC, broth microdilution; type: cell-based, Staphylococcus aureus; conditions: MRSA ATCC 43300
Procedure: as §1, §2

MRSA ATCC 700698 hVISA = assay: MIC, broth microdilution; type: cell-based, Staphylococcus aureus; conditions: MRSA ATCC 700698 hVISA
Procedure: as §1, §2

MRSA ATCC BAA-38 = assay: MIC, broth microdilution; type: cell-based, Staphylococcus aureus; conditions: MRSA ATCC BAA-38
Procedure: as §1, §2

MRSA ATCC BAA-44 = assay: MIC, broth microdilution; type: cell-based, Staphylococcus aureus; conditions: MRSA ATCC BAA-44
Procedure: as §1, §2

MRSA ATCC 700787 VRSA = assay: MIC, broth microdilution; type: cell-based, Staphylococcus aureus; conditions: MRSA ATCC 700787 VRSA
Procedure: as §1, §2

S. aureus ATCC 29213 = assay: MIC, broth microdilution; type: cell-based, Staphylococcus aureus; conditions: SA ATCC 29213
Procedure: as §1, §2

E. faecalis ATCC 29302 = assay: MIC, broth microdilution; type: cell-based; conditions: EF ATCC 29302
Procedure: as §1, §2

HEK293T cells = assay: Alamar Blue cell viability assay; type: cell-based, human; conditions: up to 100 μgmL^−1; 2 and 24 h
Procedure: The Alamar Blue (AB) assay, which includes a redox indicator that changes color or emits fluorescence in response to a metabolic activity, was used to assess in vitro mammalian cell cytotoxicity (human embryonic kidney cells (HEK293T)) upon an antibiotic treatment. 2×10^5 cellsmL^−1 were allowed to adhere on 96-well plates overnight at 37° C. in a humidified incubator (5% CO2 atmosphere). Tested compounds were dissolved in 50% DMSO to make 1 mgmL^−1 of a stock solution. Cells were separately aliquoted with 5 μL of a test compound (final concentration: 100 μgmL^−1) and incubated. PBS and 50% DMSO, which was used to dissolve compounds, served as a control. Cell viability was triplicated and assessed at 2 and 24 hour time points for each test compound, on which the measurements followed the manufacturer protocol.

VRE ATCC 700425 (vanC) = assay: MIC, broth microdilution; type: cell-based, enterococci; conditions: VRE ATCC 700425 (vanC)
Procedure: as §1, §2

VRE ATCC 700802 (vanB) = assay: MIC, broth microdilution; type: cell-based, enterococci; conditions: VRE ATCC 700802 (vanB)
Procedure: as §1, §2

VRE ATCC 700221 (vanA) = assay: MIC, broth microdilution; type: cell-based, enterococci; conditions: VRE ATCC 700221 (vanA)
Procedure: as §1, §2

| SMILES | bacterial load reduced by (A. baumannii ATCC 19606 [1]) [log CFUmL^−1] | MIC (A. baumannii ATCC 19606 [2]; Acinetobacter baumannii, ATCC19606) | MIC (A. baumannii ATCC 19606 [2]; Acinetobacter baumannii, ATCC19606, read-out: MIC on AB) [µg/mL] | MIC (MRSA ATCC BAA-39) [µg/mL] | MIC (MRSA ATCC 700789 VRSA) [µg/mL] | MIC (MRSA ATCC 43300) [µg/mL] | MIC (MRSA ATCC 700698 hVISA) [µg/mL] | MIC (MRSA ATCC BAA-38) [µg/mL] | MIC (MRSA ATCC BAA-44) [µg/mL] | MIC (MRSA ATCC 700787 VRSA) [µg/mL] | MIC (S. aureus ATCC 29213) [µg/mL] | MIC (E. faecalis ATCC 29302) [µg/mL] | cytotoxicity to HEK293T cells (HEK293T cells) | MIC (VRE ATCC 700425 (vanC)) [µg/mL] | MIC (VRE ATCC 700802 (vanB)) [µg/mL] | MIC (VRE ATCC 700221 (vanA)) [µg/mL] | MIC (A. baumannii ATCC 19606 [2]; A. baumannii ATCC 19606, Table 3, first figure of cell) [µM] | MIC (A. baumannii ATCC 19606 [2]; A. baumannii ATCC 19606, Table 3, second figure of cell) [µg/mL] |
| --- | --- | --- | --- | --- | --- | --- | --- | --- | --- | --- | --- | --- | --- | --- | --- | --- | --- | --- |
| NC[C@H]1O[C@H](O[C@H]2[C@H](O)[C@@H](O[C@H]3O[C@H](CO)[C@@H](O)[C@H](N)[C@H]3O)[C@H](N)C[C@@H]2N)[C@H](O)[C@@H](O)[C@@H]1O [kanamycin sulfate, reference compound] | 0.5 | 25 µM and 14.6 µg/mL | 14.6 | – | – | – | – | – | – | – | – | – | – | – | – | – | – | – |
| N[C@H]1C(=O)N[C@@H]2Cc3ccc(c(Cl)c3)Oc3cc4cc(c3O)Oc3ccc(cc3Cl)[C@@H](O[C@@H]3O[C@H](CO)[C@@H](O)[C@H](O)[C@H]3NC(=O)CCCCc3ccc(F)cc3)[C@@H]3NC(=O)[C@H](NC(=O)[C@@H]4NC(=O)[C@@H](NC2=O)c2cc(O)cc(c2)Oc2cc1ccc2O)c1ccc(O)c(c1)-c1c(O)cc(O)cc1[C@@H](C(=O)O)NC3=O [Compound 18] | – | – | – | 0.063 (≈ 0.041 µM) | 0.5 (≈ 0.325 µM) | 0.031 (≈ 0.0202 µM) | 0.016 (≈ 0.0104 µM) | 0.016 (≈ 0.0104 µM) | 0.016 (≈ 0.0104 µM) | 0.125 (≈ 0.0813 µM) | 0.063 (≈ 0.041 µM) | 0.25 (≈ 0.163 µM) | did not exhibit any observable toxicity | 1 (≈ 0.65 µM) | 0.25 (≈ 0.163 µM) | >16 | – | – |
| CC(=O)N[C@H]1[C@H](O[C@@H]2c3ccc(c(Cl)c3)Oc3cc4cc(c3O)Oc3ccc(cc3Cl)C[C@H]3NC(=O)[C@H](N(C)C)c5ccc(O)c(c5)Oc5cc(O)cc(c5)[C@H](NC3=O)C(=O)N[C@H]4C(=O)N[C@H]3C(=O)N[C@@H]2C(=O)N[C@H](C(=O)O)c2cc(O)cc(O)c2-c2cc3ccc2O)O[C@H](CO)[C@@H](O)[C@@H]1O [Compound 10, r1,Me2-6,GlcNAc Tei-pseudoaglycone] | – | – | – | 0.125 (≈ 0.0874 µM) | 2 (≈ 1.4 µM) | 0.25 (≈ 0.175 µM) | 1 (≈ 0.699 µM) | 0.25 (≈ 0.175 µM) | 0.125 (≈ 0.0874 µM) | 0.5 (≈ 0.35 µM) | 0.25 (≈ 0.175 µM) | 2 (≈ 1.4 µM) | – | 4 (≈ 2.8 µM) | 4 (≈ 2.8 µM) | >128 | > 200 | > 285.67 |
